Laboratory results: US4980357A, “Azolidinedione derivatives” (Pfizer Inc., priority 1990, dated 1990)

Columns and labels:
[1] = tested on: sorbitol accumulation in the lens; experiment: inhibition of sorbitol accumulation in the lens of streptozotocinized (diabetic) rats; type: in vivo, rat; settings: oral, 0.1-10.0 mg./kg., in words
Protocol: (§1) The activity of the compounds of the present invention, as agents for the control of chronic diabetic complications, is determined by their ability to successfully pass one or more of the following standard biological or pharmacological tests, viz., (1) measuring their ability to inhibit the enzyme activity of isolated aldose reductase; (2) measuring their ability to reduce or inhibit sorbitol accumulation in the sciatic nerve and lens of acutely streptozotocinized (i.e., diabetic) rats; (3) measuring their ability to reverse already-elevated sorbitol levels in the sciatic nerve and lens of chronic streptozotocin-induced diabetic rats; (4) measuring their ability to prevent or inhibit galactitol formation in the lens of acutely galactosemic rats, and (5) measuring their ability to delay cataract formation and reduce the severity of lens opacities in chronic galactosemic rats.
(§2) The following spiro-3-heteroazolone compounds of Examples 4A, 4B, 6 and 10A, respectively, were tested for their ability to reduce or inhibit sorbitol accumulation in the sciatic nerve and lens of streptozotocinized (i.e., diabetic) rats by the procedure essentially described in U.S. Pat. No. 3,821,383. In the present study, the amount of sorbitol accumulation in the sciatic nerve and lens of each test animal was measured 27 hours after induction of diabetes. […]

[2] = tested on: sorbitol accumulation in the sciatic nerve; experiment: inhibition of sorbitol accumulation in the sciatic nerve of streptozotocinized (diabetic) rats; type: in vivo, rat; settings: oral, 0.1-10.0 mg./kg., in words
Protocol: as §1, §2

**Q.** How did the “inhibit the formation of sorbitol levels in the lens” value [1] turn out when `C[C@@H]1C[C@]2(NC(=O)NC2=O)c2cc(Cl)cnc2O1` [Example 10A, (4'S)(2'R)-6'-chloro-2',3'-dihydro-2'-methyl-spiro-[imidazolidine-4,4'-4'H-pyrano[2,3-b]pyridine]-2,5-dione] was run?
**A.** Its value is “to a significantly high degree”.

**Q.** What about the “inhibit the formation of sorbitol levels in the sciatic nerve” value [2] of the same compound?
**A.** The value was “to a significantly high degree”.
